Where a name gives a salt, the structure may show the parent alone.
Target: 5-HT2A (Homo sapiens, UniProt P28223)
Experiment: Radioligand binding assay, serotonin 5-HT2A
Details: 5-HT2A radioligand binding
Method: Two arylpiperazine derivatives of Formula (I) were tested in the in vitro pharmacological assays to evaluate their activities for dopamine D2 and D4, and serotonin 5-HT1A, 5-HT2A, 5-HT2B, 5-HT6 and 5-HT7 receptors.
Methods employed to evaluate the test compounds A and B in radioligand binding assays were adopted from the scientific literature references as shown in Table 1 to maximize reliability and reproducibility. Reference standards were run as an integral part of each assay to ensure the validity of the results obtained.
Literature References in Table 1: • 1. Gundlach, A. L., et al., Life Sciences 1984, 35:1981-1986. • 2. Hoyer, D., et al, Eur J Pharmacol, 1985, 118:13-23 • 3. Hall, D. a., et al, Brit J Pharmacol, 1997, 121:731-736. • 4. Carpenter, J. W., et al, (2002) Configuring radioligand receptor binding assays for HTS using scintillation proximity assay technology. Methods in Molecular Biology 190 High Throughput Screening: Methods and Protocols • [www.ncgc.nihgov/guidance/manualtoc.html] • 5. Van Tol, et al, nature 1992, 358:149-152. • 6. Bonhaus, D. W., et al, Brit J Pharmacol, 1995, 115:622-628. • 7. Monsma, F. J., et al, Mol Pharmacol, 1993, 43:320-327. • 8. Shen, Y. et al, J. Biol Chem, 1993, 268:18200-18204. • 9. Adham, N., et al, J Pharmacol Exp Ther, 1998, 287:508-514.

5-HT2A, sequence (P28223 whole entry): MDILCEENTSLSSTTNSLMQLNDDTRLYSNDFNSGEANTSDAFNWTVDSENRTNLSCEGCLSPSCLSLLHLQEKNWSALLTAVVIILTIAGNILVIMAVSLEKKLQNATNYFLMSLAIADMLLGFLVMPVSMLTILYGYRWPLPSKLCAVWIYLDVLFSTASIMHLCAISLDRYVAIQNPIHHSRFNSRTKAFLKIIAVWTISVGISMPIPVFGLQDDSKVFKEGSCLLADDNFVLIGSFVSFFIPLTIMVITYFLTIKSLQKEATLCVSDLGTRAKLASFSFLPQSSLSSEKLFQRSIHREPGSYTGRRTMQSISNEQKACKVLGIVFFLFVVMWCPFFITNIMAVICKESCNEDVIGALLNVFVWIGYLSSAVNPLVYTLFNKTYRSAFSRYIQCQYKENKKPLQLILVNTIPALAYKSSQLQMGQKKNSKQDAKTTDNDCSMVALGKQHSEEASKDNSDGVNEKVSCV

## O=C1COc2ccc(OCCCCN3CCN(c4cccc(Cl)c4Cl)CC3)cc2N1 [Compound B, 6-(4-(4-(2,3-dichlorophenyl)piperazin-1-yl)butoxy)-2H-benzo[b][1,4]oxazin-3(4H)-one hydrochloride]
  Ki: 2.5 nM

— patent publication US9907803B2, “Methods for treating attention deficit hyperactivity disorder” (REVIVA PHARMACEUTICALS, INC., priority 2014, dated 2018)
